Test: Inhibition of HSP90
Molecule `Cc1nc(N)nc2c1/C(=N/O)C[C@@H](c1ccc(F)cc1-c1cccnc1)C2` has an IC50 of 30 µM.
With `CCOC(=O)NCc1ccc(-n2cnnc2-c2cc(C(C)C)c(O)cc2O)cc1` the IC50 was 40 µM.
Molecule `Oc1ccc2c(-c3cc(Br)c(O)cc3O)noc2c1` has an IC50 of 190 µM.
For `Cc1ccccc1[C@H]1CCCN1C(=O)c1ccc(O)cc1O`, the IC50 was 60 µM.
